Measured values published in patent publication US8273754B2, “Substituted 1H-pyrazolo[3,4-D]pyrimidine-6-amine compounds” (ArQule, Inc., priority 2008, dated 2012).
Where two headings read alike, the source gives them in different places.

Test system: cancer cells
Experiment: MTS cell growth inhibition assay (72 hours)
Type: cell-based
How it was run: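 Growth inhibition read as formazan absorbance at 492 nm after 4 h MTS/PMS, following 72 h compound exposure at 37 °C in 1% FBS DMEM (cells pre-seeded 18 h). IC50 = 50% absorbance reduction; inhibition graded in bands.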

[1] = Homo sapiens, DLD-1, 72 h, DLD-1 cells, read-out: DLD-1 MTS 72 hr at 10 μM
[2] = Homo sapiens, KATO III, 72 h, KATO III cells, read-out: KATO III MTS 72 hr at 10 μM
[3] = Homo sapiens, MDA-MB-231, 72 h, MDA-MB-231 cells, read-out: MDA-MB-231 MTS 72 hr at 10 μM
[4] = Homo sapiens, NCI-H1299, 72 h, NCI-H1299 cells, read-out: NCI-H1299 MTS 72 hr at 10 μM
[5] = PaCa-2, 72 h, PACA-2 cells, read-out: PACA-2 MTS 72 hr at 10 μM

In the case of Nc1nc(NC2Cc3ccccc3N(S(=O)(=O)c3ccc(C(F)(F)F)cc3Cl)C2)c2cn[nH]c2n1 (stereo not drawn) [Compound 74, N4-(1-(2-chloro-4-(trifluoromethyl)phenylsulfonyl)-1,2,3,4-tetrahydroquinolin-3-yl)-1H-pyrazolo[3,4-d]pyrimidine-4,6-diamine], the inhibition at 10 µM [1] is reported as < 50%, the inhibition at 10 µM [2] is reported as < 50% and the inhibition at 10 µM [3] is reported as < 50%. For the same molecule, the inhibition at 10 µM [4] was < 50% and the inhibition at 10 µM [5] was < 50%.

In the case of Nc1nc(NC2Cc3ccccc3N(S(=O)(=O)c3ccc(NC(=O)Nc4cc(C(F)(F)F)ccc4F)cc3)C2)c2cn[nH]c2n1 (stereo not drawn) [Compound 196, 1-[4-({3-[(6-amino-1H-pyrazolo[3,4-d]pyrimidin-4-yl)amino]-3,4-dihydroquinolin-1(2H)-yl}sulfonyl)phenyl]-3-[2-fluoro-5-(trifluoromethyl)phenyl]urea], the inhibition at 10 µM [1] is reported as > 79%, the inhibition at 10 µM [2] is reported as > 79% and the inhibition at 10 µM [3] is reported as > 79%. The inhibition at 10 µM [4] was 50 to 79% and the inhibition at 10 µM [5] was > 79%.

In the case of Nc1nc(NC2Cc3ccccc3N(C(=O)c3c(F)ccc(Cl)c3F)C2)c2cn[nH]c2n1 (stereo not drawn) [Compound 104, (3-(6-amino-1H-pyrazolo[3,4-d]pyrimidin-4-ylamino)-3,4-dihydroquinolin-1(2H)-yl)(3-chloro-2,6-difluorophenyl)methanone], the inhibition at 10 µM [1] is reported as < 50%, the inhibition at 10 µM [2] is reported as < 50% and the inhibition at 10 µM [3] is reported as < 50%. For the same molecule, the inhibition at 10 µM [4] was < 50% and the inhibition at 10 µM [5] was < 50%.

With COc1ccc(CCNC(=O)N2CC(Nc3nc(N)nc4[nH]ncc34)Cc3ccccc32)cc1 (stereo not drawn) [Compound 116, 3-(6-amino-1H-pyrazolo[3,4-d]pyrimidin-4-ylamino)-N-(4-methoxyphenethyl)-3,4-dihydroquinoline-1(2H)-carboxamide] the inhibition at 10 µM [1] was < 50%, the inhibition at 10 µM [2] was < 50% and the inhibition at 10 µM [3] was < 50%. For the same molecule, the inhibition at 10 µM [4] was < 50% and the inhibition at 10 µM [5] was < 50%.

In the case of Nc1nc(NC2Cc3ccccc3N(S(=O)(=O)c3ccc(NC(=O)Nc4ccccc4Cl)cc3)C2)c2cn[nH]c2n1 (stereo not drawn) [Compound 190, 1-[4-({3-[(6-amino-1H-pyrazolo[3,4-d]pyrimidin-4-yl)amino]-3,4-dihydroquinolin-1(2H)-yl}sulfonyl)phenyl]-3-(2-chlorophenyl)urea], the inhibition at 10 µM [1] is reported as < 50%, the inhibition at 10 µM [2] is reported as < 50% and the inhibition at 10 µM [3] is reported as < 50%. For the same molecule, the inhibition at 10 µM [4] was < 50% and the inhibition at 10 µM [5] was < 50%.

With Nc1nc(NC2Cc3ccccc3N(C(=O)Nc3ccccc3Cl)C2)c2cn[nH]c2n1 (stereo not drawn) [Compound 118, 3-(6-amino-1H-pyrazolo[3,4-d]pyrimidin-4-ylamino)-N-(2-chlorophenyl)-3,4-dihydroquinoline-1(2H)-carboxamide] the inhibition at 10 µM [1] was < 50%, the inhibition at 10 µM [2] was < 50% and the inhibition at 10 µM [3] was < 50%. The inhibition at 10 µM [4] was < 50% and the inhibition at 10 µM [5] was < 50%.

With Cc1cccc(NC(=O)Nc2cccc(S(=O)(=O)N3CC(Nc4nc(N)nc5[nH]ncc45)Cc4ccccc43)c2)c1 (stereo not drawn) [Compound 205, 1-[3-({3-[(6-amino-1H-pyrazolo[3,4-d]pyrimidin-4-yl)amino]-3,4-dihydroquinolin-1(2H)-yl}sulfonyl)phenyl]-3-(3-methylphenyl)urea] the inhibition at 10 µM [1] was 50 to 79%, the inhibition at 10 µM [2] was > 79% and the inhibition at 10 µM [3] was 50 to 79%. The inhibition at 10 µM [4] was < 50% and the inhibition at 10 µM [5] was > 79%.

In the case of Nc1nc(NC2Cc3ccccc3N(S(=O)(=O)c3cccc(Cl)c3Cl)C2)c2cn[nH]c2n1 (stereo not drawn) [Compound 57, N4-(1-(2,3-dichlorophenylsulfonyl)-1,2,3,4-tetrahydroquinolin-3-yl)-1H-pyrazolo[3,4-d]pyrimidine-4,6-diamine], the inhibition at 10 µM [1] is reported as < 50%, the inhibition at 10 µM [2] is reported as < 50% and the inhibition at 10 µM [3] is reported as < 50%. For the same molecule, the inhibition at 10 µM [4] was < 50% and the inhibition at 10 µM [5] was < 50%.

For COc1cc(C)c(S(=O)(=O)N2CC(Nc3nc(N)nc4[nH]ncc34)Cc3ccccc32)c(C)c1C (stereo not drawn) [Compound 72, N4-(1-(4-methoxy-2,3,6-trimethylphenylsulfonyl)-1,2,3,4-tetrahydroquinolin-3-yl)-1H-pyrazolo[3,4-d]pyrimidine-4,6-diamine], the inhibition at 10 µM [1] was > 79%, the inhibition at 10 µM [2] was > 79% and the inhibition at 10 µM [3] was 50 to 79%. For the same molecule, the inhibition at 10 µM [4] was < 50% and the inhibition at 10 µM [5] was > 79%.
